Test results reported in the supplement of paper PMC10307832.

Assays:
Assay in all cases: relative viability (nuclei count vs DMSO), 5 days (fraction); higher = more cells survive
Gemcitabine + Decitabine = compound: Nc1ccn([C@@H]2O[C@H](CO)[C@@H](O)C2(F)F)c(=O)n1 [Gemcitabine] + Nc1ncn([C@H]2C[C@H](O)[C@@H](CO)O2)c(=O)n1 [Decitabine] (partner 2 µM)
Summary of the method: (§1)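 Lung cancer cell lines were pin-tool dosed in 1536-well plates on the day after seeding, with either a lone drug or a fixed anchor-drug dose plus five library-drug doses (not always all listed) in √10 steps. Nuclei were counted on 4× images after 5 days. Relative viability is the ratio of treated-well to vehicle-well nuclei counts, with each value a median of duplicate plates.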

Gemcitabine + Pictilisib = compound: Nc1ccn([C@@H]2O[C@H](CO)[C@@H](O)C2(F)F)c(=O)n1 [Gemcitabine] + CS(=O)(=O)N1CCN(Cc2cc3nc(-c4cccc5[nH]ncc45)nc(N4CCOCC4)c3s2)CC1 [Pictilisib] (partner 1 µM)
Summary of the method: as §1

Gemcitabine + Linsitinib = compound: Nc1ccn([C@@H]2O[C@H](CO)[C@@H](O)C2(F)F)c(=O)n1 [Gemcitabine] + C[C@]1(O)C[C@@H](c2nc(-c3ccc4ccc(-c5ccccc5)nc4c3)c3c(N)nccn32)C1 [Linsitinib] (partner 1 µM)
Summary of the method: as §1

Gemcitabine + Alpelisib = compound: Nc1ccn([C@@H]2O[C@H](CO)[C@@H](O)C2(F)F)c(=O)n1 [Gemcitabine] + Cc1nc(NC(=O)N2CCC[C@H]2C(N)=O)sc1-c1ccnc(C(C)(C)C(F)(F)F)c1 [Alpelisib] (partner 2 µM)
Summary of the method: as §1

Cell Line	relative viability (Gemcitabine + Decitabine; first compound 0.001 µM)	relative viability (Gemcitabine + Decitabine; first compound 0.003162 µM)	relative viability (Gemcitabine + Decitabine; first compound 0.01 µM)	relative viability (Gemcitabine + Decitabine; first compound 0.03162 µM)	relative viability (Gemcitabine + Decitabine; first compound 0.1 µM)	relative viability (Gemcitabine + Pictilisib; first compound 0.001 µM)	relative viability (Gemcitabine + Pictilisib; first compound 0.003162 µM)	relative viability (Gemcitabine + Pictilisib; first compound 0.01 µM)	relative viability (Gemcitabine + Pictilisib; first compound 0.03162 µM)	relative viability (Gemcitabine + Pictilisib; first compound 0.1 µM)	relative viability (Gemcitabine + Linsitinib; first compound 0.001 µM)	relative viability (Gemcitabine + Linsitinib; first compound 0.003162 µM)	relative viability (Gemcitabine + Linsitinib; first compound 0.01 µM)	relative viability (Gemcitabine + Linsitinib; first compound 0.03162 µM)	relative viability (Gemcitabine + Linsitinib; first compound 0.1 µM)	relative viability (Gemcitabine + Alpelisib; first compound 0.001 µM)	relative viability (Gemcitabine + Alpelisib; first compound 0.003162 µM)	relative viability (Gemcitabine + Alpelisib; first compound 0.01 µM)	relative viability (Gemcitabine + Alpelisib; first compound 0.03162 µM)	relative viability (Gemcitabine + Alpelisib; first compound 0.1 µM)
COR-L 105	0.68	0.596	0.46	0.37	0.3	0.43	0.377	0.364	0.27	0.269	0.88	0.734	0.6	0.278	0.269	1.22	0.95	0.526	0.261	0.21
LK-2	0.242	0.23	0.204	0.109	0.128	0.527	–	0.419	0.271	0.288	0.6	0.485	0.433	0.196	0.156	1.23	–	0.447	0.242	0.251
NCI-H727	0.846	0.477	0.569	0.451	0.47	0.552	0.459	0.304	0.216	0.211	0.325	0.277	0.236	0.219	0.213	0.412	0.311	0.199	0.221	0.212
RERF-LC-KJ	0.831	0.701	0.636	0.529	0.324	0.775	0.458	0.408	0.304	0.168	0.856	0.939	0.821	0.739	0.296	0.853	0.849	0.856	0.496	0.228
NCI-H2023	0.224	0.217	0.126	0.0929	0.0689	0.248	0.266	0.143	0.106	0.0734	0.8	0.631	0.478	0.0945	0.0741	0.703	0.542	0.415	0.214	0.066
NCI-H322M	0.607	0.445	0.41	0.457	0.388	0.445	0.178	0.251	0.239	0.244	0.777	0.474	0.3	0.274	0.267	0.562	0.292	0.245	0.294	0.271
NCI-H1666	0.686	0.55	0.712	0.538	0.447	0.326	0.471	0.306	0.284	0.274	0.789	0.882	0.435	0.286	0.285	0.863	0.92	0.364	0.232	0.279
SW 900	0.325	0.372	0.267	0.148	0.169	–	–	–	–	–	–	–	–	–	–	–	–	–	–	–
NCI-H2087	0.283	0.307	0.179	0.086	0.0869	0.73	0.662	0.386	0.193	0.199	0.93	0.808	0.579	0.217	0.183	1.26	0.872	0.38	0.15	0.14
LU99A	0.789	1.03	0.816	0.985	0.836	0.33	0.31	0.313	0.369	0.333	0.601	0.597	0.487	0.576	0.554	0.506	0.576	0.515	0.505	0.481
HCC-366	0.329	0.331	0.0609	0.0417	0.0234	0.188	0.136	0.0591	0.0347	0.0366	0.722	0.477	0.138	0.0302	0.0117	0.516	0.359	0.0565	0.0184	0.0102
EKVX	0.3	0.256	0.18	0.193	0.14	0.424	0.336	0.226	0.153	0.108	1.07	0.727	0.541	0.188	0.118	0.93	0.77	0.454	0.147	0.132
NCI-H2342	0.694	0.65	0.532	0.537	0.337	–	–	–	–	–	–	–	–	–	–	–	–	–	–	–
NCI-H1755	0.708	0.667	0.65	0.568	0.469	0.417	0.45	0.355	0.249	0.188	0.957	1.06	0.975	0.347	0.259	0.897	0.919	0.768	0.25	0.215
NCI-H647	0.308	0.257	0.151	0.104	0.0673	0.304	0.163	0.0953	0.0685	0.0658	1.27	0.382	0.0832	0.0779	0.0445	1.08	0.174	0.0715	0.0975	0.0551
LC-2-ad	0.797	0.863	0.729	0.658	0.469	0.517	0.726	0.242	0.129	0.105	0.895	0.852	0.553	0.143	0.132	0.901	0.833	0.5	0.0947	0.0966
NCI-H1793	0.512	0.433	0.271	0.156	0.162	0.262	0.282	0.291	0.186	0.176	1	0.857	0.539	0.16	0.135	0.706	0.594	0.354	0.156	0.147
HCC-827	0.333	0.226	0.274	0.166	0.186	1.11	0.845	0.89	0.591	0.389	0.96	0.79	0.546	0.327	0.252	0.895	0.48	0.56	0.391	0.167
HCC-78	0.622	0.651	0.367	0.343	0.268	0.198	0.247	0.201	0.148	0.132	0.532	0.347	0.199	0.189	0.154	0.278	0.241	0.12	0.157	0.13

Cell Line	relative viability (Gemcitabine + Decitabine; first compound 0.001 µM)	relative viability (Gemcitabine + Decitabine; first compound 0.003162 µM)	relative viability (Gemcitabine + Decitabine; first compound 0.01 µM)	relative viability (Gemcitabine + Decitabine; first compound 0.03162 µM)	relative viability (Gemcitabine + Decitabine; first compound 0.1 µM)	relative viability (Gemcitabine + Pictilisib; first compound 0.001 µM)	relative viability (Gemcitabine + Pictilisib; first compound 0.003162 µM)	relative viability (Gemcitabine + Pictilisib; first compound 0.01 µM)	relative viability (Gemcitabine + Pictilisib; first compound 0.03162 µM)	relative viability (Gemcitabine + Pictilisib; first compound 0.1 µM)	relative viability (Gemcitabine + Linsitinib; first compound 0.001 µM)	relative viability (Gemcitabine + Linsitinib; first compound 0.003162 µM)	relative viability (Gemcitabine + Linsitinib; first compound 0.01 µM)	relative viability (Gemcitabine + Linsitinib; first compound 0.03162 µM)	relative viability (Gemcitabine + Linsitinib; first compound 0.1 µM)	relative viability (Gemcitabine + Alpelisib; first compound 0.001 µM)	relative viability (Gemcitabine + Alpelisib; first compound 0.003162 µM)	relative viability (Gemcitabine + Alpelisib; first compound 0.01 µM)	relative viability (Gemcitabine + Alpelisib; first compound 0.03162 µM)	relative viability (Gemcitabine + Alpelisib; first compound 0.1 µM)
NCI-H2085	0.583	0.507	0.486	0.425	0.428	0.45	0.448	0.461	0.344	0.347	0.795	0.967	0.705	0.57	0.404	0.892	0.959	0.765	0.57	0.429
PC-14	0.217	0.0953	0.0507	0.0388	0.0405	0.684	0.435	0.139	0.036	0.0292	0.936	0.6	0.366	0.147	0.0669	1.02	0.688	0.468	0.0826	0.0459
NCI-H1648	0.515	0.443	0.442	0.315	0.293	–	–	–	–	–	–	–	–	–	–	–	–	–	–	–
A-427	0.629	0.546	0.463	0.342	0.273	0.748	0.673	0.438	0.155	0.0739	1.06	1.03	0.895	0.209	0.138	1.03	0.99	0.764	0.169	0.0914
H3255	0.884	0.374	0.42	0.238	0.15	0.524	0.299	0.334	0.194	0.137	0.954	0.644	0.762	0.233	0.145	0.8	0.403	0.472	0.185	0.168
HCC-44	0.936	0.918	0.901	0.845	0.738	0.58	0.568	0.593	0.392	0.234	0.628	0.672	0.589	0.166	0.143	0.808	0.791	0.636	0.238	0.122
NCI-H1734	0.536	0.343	0.192	0.134	0.102	0.455	0.387	0.233	0.151	0.113	0.909	0.806	0.457	0.129	0.13	0.567	0.627	0.213	0.153	0.0967
NCI-H2228	–	–	–	–	–	0.375	0.417	0.294	0.236	0.123	0.569	0.666	0.186	0.217	0.112	0.74	0.534	0.144	0.123	0.134
ABC-1	–	0.798	1.07	0.497	0.436	0.907	0.832	0.599	0.38	0.278	0.92	1.01	0.689	0.286	0.243	0.95	0.97	0.838	0.45	0.307
COR-L23	0.423	0.463	0.443	0.217	0.146	0.686	0.942	0.39	0.148	0.0795	1.19	0.954	0.467	0.0831	0.0803	0.763	0.634	0.229	0.118	0.0742
NCI-H661	0.569	0.582	0.465	0.346	0.237	0.352	0.388	0.288	0.224	0.242	0.534	0.406	0.245	0.198	0.15	0.594	0.503	0.185	0.177	0.172
ChaGo-K-1	0.517	0.467	0.337	0.205	0.187	0.664	0.388	0.363	0.198	0.239	–	–	–	–	–	–	–	–	–	–
NCI-H1650	0.467	0.369	0.239	0.222	0.155	0.524	0.466	0.267	0.181	0.144	–	–	–	–	–	–	–	–	–	–
EBC-1	–	–	–	–	–	0.355	0.237	0.15	0.151	0.143	0.777	0.369	0.142	0.0966	0.115	0.589	0.21	0.168	0.187	0.165
NCI-H1703	–	–	–	–	–	0.208	0.227	0.158	0.154	0.132	0.774	0.228	0.103	0.101	0.132	0.274	0.178	0.107	0.113	0.117
CAL-12T	–	–	–	–	–	0.289	0.393	0.359	0.267	0.242	0.777	0.859	0.567	0.256	0.169	1.6	0.917	0.84	0.285	0.164
NCI-H1563	–	–	–	–	–	0.599	0.669	0.652	0.634	0.506	1.5	1.12	1.08	0.734	0.531	0.99	0.94	0.635	0.651	0.428
NCI-H2170	0.457	0.455	0.349	0.201	0.126	0.318	0.359	0.215	0.157	0.156	–	–	–	–	–	0.85	0.767	0.412	0.181	0.169
